Converted amounts (≈) assume the structure as drawn. Marks after values point to notes of the source that are not given here. Non-standard residues stand in square brackets, D forms with d. Residues, ends and D or L forms follow the SMILES beside them. dPhe(4-Br) = N[C@H](Cc1ccc(Br)cc1)C(=O)O; d2Nal = N[C@H](Cc1ccc2ccccc2c1)C(=O)O
Legend:
[1] = tested on: carbapenem-resistant Klebsiella pneumoniae (CRKP); assay type: cell-based; conditions: carbapenem-resistant (CRKP)
Source text: (§1) According to the Standards of Clinical and Laboratory Standards Institute (CLSI) of the USA for antimicrobial drug susceptibility test operation standards, the micronutrient serial twofold dilution method was used further determine MICs of the antimicrobial peptides LV-1 to LV-30 against 5 clinically common drug-resistant bacterial strains. The experiment was repeated 5 times in parallel. […] The tested drug-resistant strains included Methicillin-resistant Staphylococcus aureus (MRSA), carbapenem-resistant Escherichia coli (CREC), vancomycin-resistant Enterococcus (VRE), carbapenem-resistant Pseudomonas aeruginosa (CRPA), and carbapenem-resistant Klebsiella pneumoniae (CRKP).

[2] = tested on: carbapenem-resistant Pseudomonas aeruginosa (CRPA); assay type: cell-based; conditions: carbapenem-resistant (CRPA)
Source text: as §1

[3] = tested on: Methicillin-resistant Staphylococcus aureus (MRSA); assay type: cell-based; conditions: Methicillin-resistant
Source text: as §1

[4] = tested on: vancomycin-resistant Enterococcus (VRE); assay type: cell-based
Source text: as §1

[5] = tested on: carbapenem-resistant Escherichia coli (CREC); assay type: cell-based; conditions: carbapenem-resistant (CREC)
Source text: as §1

[6] = tested on: Escherichia coli ATCC 25922; assay: Oral formulations on mice with systemic bacterial infection; assay type: in vivo, ICR mice; conditions: three times a day for 7 days; for Number of mice that died on each day after infection: day 4 / Number of mice that died on each day after infection: day 5 / Number of mice that died on each day after infection: day 6 / Number of mice that died on each day after infection: day 7 / Number of mice that died on each day after infection: day 8 / Average survival times (Days): n = 10; for Average survival times (Days): observed for 14 d; for survival time of mice infected with Escherichia coli: gavage, observed 14 d
Method: Both female and male ICR mice were used in the test, half of the female and male mice were taken and randomly assigned into groups, with 10 mice in each group, and kept in separate cages. The mice were divided into a blank control group, a negative control group, a positive control Levofloxacin group, and AMPs LV-1 to LV-30 groups. An Escherichia coli ATCC 25922 bacterial suspension was prepared, a concentration of the suspension was adjusted 1×10^7 CFU/mL for subsequent use. Except for the blank control group, all other mice were injected with the Escherichia coli suspension (0.2 mL, 1×10^7 CFU/mL), into abdominal cavity of the mice, to establish a model. After the model was successfully established, the mice were given drug immediately according to their body weights. Except for the blank control group and the negative control group, the mice in all other groups were gavaged with different compounds, three times a day for 7 consecutive days. The mice were then observed for 14 d. The death of mice in each group was observed, and survival time of the mice was recorded. Results of the effect of the oral formulations of AMPs LV-1 to LV-30 on the survival time of mice infected with Escherichia coli are shown in Table 11.

[7] = tested on: Shigella flexneri ATCC 12022; assay: MIC against clinically common bacterial strain; assay type: cell-based
Source text: (§2) According to the Standards of Clinical and Laboratory Standards Institute (CLSI) of the USA for antimicrobial drug susceptibility test operation standards, the micronutrient serial twofold dilution method was used further determine MICs of 30 AMPs (S/N: LV-1 to LV-30) 10 clinically common sensitive strains and 6 fungi in clinical practice. The experiment was repeated 5 times in parallel.

[8] = tested on: Trichophyton ATCC MYA-4438; assay type: cell-based
Source text: as §2

[9] = tested on: Candida glabrata ATCC 15126; assay type: cell-based
Source text: as §2

[10] = tested on: Candida krusei ATCC 6258; assay type: cell-based
Source text: as §2

[11] = tested on: Corynebacterium ATCC 7715; assay type: cell-based
Source text: as §2

[12] = tested on: Staphylococcus aureus (NRS 384); assay: microbe, parasite or virus in culture; assay type: cell-based; conditions: NRS 384
In short: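 MICs were read against S. aureus strain NRS 384 using twofold serial dilution by CLSI microdilution rules. Levofloxacin and Cbf-K16 were the reference controls, and the test was repeated 5 times in parallel.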

[13] = tested on: Staphylococcus aureus (NRS 384); conditions: NRS 384, 3 h
Method: Trypsin (250 U/mg, pH=8.0) and AMPs (LV-1 to LV-30) were mixed in a ratio of 1:10 (w/w) and added to a reaction buffer (0.2 M sodium phosphate, 1 mM CaCl2), pH 7.5), and then incubated at 37° C. for 3 h.

[14] = tested on: rabbit red blood cells; assay type: cell-based; conditions: red cells of rabbit, 1 h
[15] = Serum stability assay (residual level by RP-HPLC); conditions: human

SMILES | MIC CRKP [1] [µg/mL] | MIC CRPA [2] [µg/mL] | MIC MRSA [3] [µg/mL] | MIC VRE [4] [µg/mL] | MIC CREC [5] [µg/mL] | Number of mice that died on each day after infection: day 4 ([6]; 1 mg/kg gavage) [Mouse] | Number of mice that died on each day after infection: day 5 ([6]; 1 mg/kg gavage) [Mouse] | Number of mice that died on each day after infection: day 6 ([6]; 1 mg/kg gavage) [Mouse] | Number of mice that died on each day after infection: day 7 ([6]; 1 mg/kg gavage) [Mouse] | Number of mice that died on each day after infection: day 8 ([6]; 1 mg/kg gavage) [Mouse] | Average survival times (Days) ([6]; 1 mg/kg gavage) | MIC Shigella flexneri ATCC 12022 [7] [µg/mL] | MIC Trichophyton ATCC MYA-4438 [8] [µg/mL] | MIC Candida glabrata ATCC 15126 [9] [µg/mL] | MIC Candida krusei ATCC 6258 [10] [µg/mL] | MIC Corynebacterium ATCC 7715 [11] [µg/mL] | MIC against Staphylococcus aureus (NRS 384) [12] [µg/mL] | Trypsin MIC [13] [µg/mL] | MHC (minimum hemolytic concentration, lowest concentration causing 10% hemolysis) [14] [µg/mL] | remaining at 12 h, 0.91 mg/mL [15] [%] | also measured
CC(=O)N[C@H](CCCNC(=N)N)C(=O)N[C@H](CCCCN)C(=O)N[C@H](CC(C)C)C(=O)N[C@H](CC(C)C)C(=O)N[C@H](Cc1ccc2ccccc2c1)C(=O)N[C@H](CCCNC(=N)N)C(=O)N[C@H](CC(C)C)C(=O)N[C@H](CCCCN)C(=O)N[C@H](Cc1ccc2ccccc2c1)C(=O)N[C@H](CCCNC(=N)N)C(=O)N[C@H](CCCCN)C(N)=O [LV-20] (Ac-[dR][dK][dL][dL][d2Nal][dR][dL][dK][d2Nal][dR][dK]-NH2) | 8 (≈ 4.86 µM) | 4 (≈ 2.43 µM) | 2 (≈ 1.21 µM) | 4 (≈ 2.43 µM) | 8 (≈ 4.86 µM) | 1 | 1 | 0 | 1 | 0 | 11.4**** Days | 4 (≈ 2.43 µM) | 8 (≈ 4.86 µM) | 8 (≈ 4.86 µM) | 8 (≈ 4.86 µM) | 2 (≈ 1.21 µM) | 1 (≈ 0.607 µM) | 1 | >1000 | 98.2 | Number of mice that died on each day after infection: day 4 ([6]; 0.2 mg/kg gavage): 1 Mouse; Number of mice that died on each day after infection: day 5 ([6]; 0.2 mg/kg gavage): 1 Mouse; Number of mice that died on each day after infection: day 6 ([6]; 0.2 mg/kg gavage): 2 Mouse; Number of mice that died on each day after infection: day 7 ([6]; 0.2 mg/kg gavage): 2 Mouse; Number of mice that died on each day after infection: day 8 ([6]; 0.2 mg/kg gavage): 0 Mouse; Average survival times (Days) ([6]; 0.2 mg/kg gavage): 9.1** Days; Number of mice that died on each day after infection: day 4 ([6]; 5 mg/kg gavage): 2 Mouse; Number of mice that died on each day after infection: day 5 ([6]; 5 mg/kg gavage): 0 Mouse; Number of mice that died on each day after infection: day 6 ([6]; 5 mg/kg gavage): 2 Mouse; Number of mice that died on each day after infection: day 7 ([6]; 5 mg/kg gavage): 0 Mouse; Number of mice that died on each day after infection: day 8 ([6]; 5 mg/kg gavage): 0 Mouse; Average survival times (Days) ([6]; 5 mg/kg gavage): 10.4*** Days; survival time of mice infected with Escherichia coli [6]: superior to those of the Levofloxacin group
CC(=O)N[C@H](CCCCN)C(=O)N[C@H](CCCCN)C(=O)N[C@H](CC(C)C)C(=O)N[C@H](CC(C)C)C(=O)N[C@H](Cc1ccc(Br)cc1)C(=O)N[C@H](CCCNC(=N)N)C(=O)N[C@H](CC(C)C)C(=O)N[C@H](CCCCN)C(=O)N[C@H](Cc1ccc(Br)cc1)C(=O)N[C@H](CCCNC(=N)N)C(=O)N[C@H](CCCCN)C(N)=O [LV-10] (Ac-[dK][dK][dL][dL][dPhe(4-Br)][dR][dL][dK][dPhe(4-Br)][dR][dK]-NH2) | 2 (≈ 1.19 µM) | 2 (≈ 1.19 µM) | 4 (≈ 2.39 µM) | 8 (≈ 4.77 µM) | 4 (≈ 2.39 µM) | 0 | 2 | 2 | 0 | 1 | 10.0*** Days | 2 (≈ 1.19 µM) | 8 (≈ 4.77 µM) | 8 (≈ 4.77 µM) | 8 (≈ 4.77 µM) | 8 (≈ 4.77 µM) | 1 (≈ 0.597 µM) | 1 | >1000 | 98 | 
CC(=O)N[C@H](CCCNC(=N)N)C(=O)N[C@H](CCCCN)C(=O)N[C@H](CC(C)C)C(=O)N[C@H](CC(C)C)C(=O)N[C@H](Cc1ccc2ccccc2c1)C(=O)N[C@H](CCCNC(=N)N)C(=O)N[C@H](CC(C)C)C(=O)N[C@H](CCCCN)C(=O)N[C@H](Cc1ccc2ccccc2c1)C(=O)N[C@H](CCCNC(=N)N)C(=O)N[C@H](CCCNC(=N)N)C(N)=O [LV-22] (Ac-[dR][dK][dL][dL][d2Nal][dR][dL][dK][d2Nal][dR][dR]-NH2) | 2 (≈ 1.19 µM) | 8 (≈ 4.78 µM) | 2 (≈ 1.19 µM) | 4 (≈ 2.39 µM) | 8 (≈ 4.78 µM) | 0 | 2 | 1 | 1 | 2 | 9.5** Days | 4 (≈ 2.39 µM) | 4 (≈ 2.39 µM) | 8 (≈ 4.78 µM) | 8 (≈ 4.78 µM) | 4 (≈ 2.39 µM) | 1 (≈ 0.597 µM) | 1 | >1000 | 97.2 | 
CC(=O)N[C@H](CCCNC(=N)N)C(=O)N[C@H](CCCCN)C(=O)N[C@H](CC(C)C)C(=O)N[C@H](CC(C)C)C(=O)N[C@H](Cc1ccccc1)C(=O)N[C@H](CCCNC(=N)N)C(=O)N[C@H](CC(C)C)C(=O)N[C@H](CCCCN)C(=O)N[C@H](Cc1ccccc1)C(=O)N[C@H](CCCNC(=N)N)C(=O)N[C@H](CCCCN)C(N)=O [LV-2] (Ac-[dR][dK][dL][dL][dF][dR][dL][dK][dF][dR][dK]-NH2) | 2 (≈ 1.29 µM) | 8 (≈ 5.17 µM) | 2 (≈ 1.29 µM) | 2 (≈ 1.29 µM) | 4 (≈ 2.59 µM) | 0 | 2 | 1 | 0 | 0 | 11.4**** Days | 2 (≈ 1.29 µM) | 8 (≈ 5.17 µM) | 16 (≈ 10.3 µM) | 16 (≈ 10.3 µM) | 4 (≈ 2.59 µM) | 1 (≈ 0.647 µM) | 1 | >1000 | 97.4 | Number of mice that died on each day after infection: day 4 ([6]; 0.2 mg/kg gavage): 1 Mouse; Number of mice that died on each day after infection: day 5 ([6]; 0.2 mg/kg gavage): 2 Mouse; Number of mice that died on each day after infection: day 6 ([6]; 0.2 mg/kg gavage): 1 Mouse; Number of mice that died on each day after infection: day 7 ([6]; 0.2 mg/kg gavage): 1 Mouse; Number of mice that died on each day after infection: day 8 ([6]; 0.2 mg/kg gavage): 1 Mouse; Average survival times (Days) ([6]; 0.2 mg/kg gavage): 9.1** Days; Number of mice that died on each day after infection: day 4 ([6]; 5 mg/kg gavage): 0 Mouse; Number of mice that died on each day after infection: day 5 ([6]; 5 mg/kg gavage): 3 Mouse; Number of mice that died on each day after infection: day 6 ([6]; 5 mg/kg gavage): 1 Mouse; Number of mice that died on each day after infection: day 7 ([6]; 5 mg/kg gavage): 0 Mouse; Number of mice that died on each day after infection: day 8 ([6]; 5 mg/kg gavage): 0 Mouse; Average survival times (Days) ([6]; 5 mg/kg gavage): 10.5*** Days; survival time of mice infected with Escherichia coli [6]: superior to those of the Levofloxacin group

From US20250304620A1, “ANTIMICROBIAL PEPTIDE AND APPLICATION THEREOF” (priority 2023, published 2025)
